Results reported in US7858637B2, “Administration of TLR7 ligands and prodrugs thereof for treatment of infection by hepatitis C virus” (priority 2003, dated 2010).
Read-outs that look alike come from different tables or passages of the source.

Legend:
[1] = test system: human peripheral blood mononuclear cells (PBMC); assay: PBMC assay of interferon alpha release (masking); assay type: cell-based
Description: A typical experiment would use human peripheral blood mononuclear cells (PBMC) isolated from a healthy donor and placed in replicate cell culture wells; typically, 2×10^6 to 5×10^6 cells are placed in each well. The PBMC are incubated in the absence of test compounds at 37° C. in a humidified atmosphere containing 5% CO2 for 24 hours to allow stabilization to the culture conditions, and then 100 micromolar isatoribine, the TLR7 ligand and a corresponding TLR7 ligand prodrug are added to separate wells containing PBMC from the same donor; untreated controls are included. The concentrations of TLR7 ligand and TLR7 ligand prodrug may be varied to suit the particular experiment, and the PBMC cultures are then incubated at 37° C. in a humidified atmosphere containing 5% CO2 for a period of time ranging from two hours to 48 hours. Samples of cell culture supernate media are taken during the incubation. These are assayed for cytokine production by ELISA. Additionally the amount of TLR7 ligand and TLR7 ligand prodrug remaining at the end of the incubation may be assayed by LC-MS. Cytokine production is calculated relative to production in the isatoribine control, following subtraction of the cytokine production in untreated controls.
Thus, if the TLR7 ligand generates more interferon alpha (a conveniently measured cytokine) than does the corresponding TLR7 ligand prodrug after a similar duration of exposure and concentration, the TLR7 ligand prodrug may be deemed a “masked” TLR7 ligand prodrug.

HCV replicon = assay: HCV replicon-based viral bioassay with supernatants of compound-treated PBMC; assay type: cell-based, hepatitis C virus
Description: A quantitative assay was developed which is based on measuring the activity of the luciferase reporter gene that was integrated into an HCV replicon. By using this system, interferons from TLR7 agonist-treated PBMCs were measured and their inhibitory activity was assessed using the luciferase reporter replicon.
Human PBMCs isolated from a healthy donor were placed in replicate cell culture wells (5×10^6 cells per well). The PBMCs are incubated in the absence of test compounds at 37° C. in a humidified atmosphere containing 5% CO2 for 24 hours to allow stabilization to the culture conditions, and then the TLR7 ligand or a drug free control is added to replicate wells containing PBMCs from the same donor. The concentrations of TLR7 ligand may be varied to suit the particular experiment, and the PBMC cultures are then incubated at 37° C. in a humidified atmosphere containing 5% CO2 for eight hours. Samples of cell culture supernatant are taken at the eight hour time point (or twenty four hour time point in case of Loxoribine and its prodrugs) from TLR7 ligand treated and control wells and are assayed for interferon-alpha production by ELISA. Supernatants from compound-treated cells and a no-drug control were diluted at 1:10, 1:100, and 1:1000 in RPMI media and applied to a 96-well plate of Huh7 hepatocyte cells containing the luciferase reporter replicon. Cells were incubated for 48 hours at 37° C. in a tissue culture incubator.
After the incubation period, the 96-well plates are washed 2× with PBS and are lysed with passive lysis buffer (Promega). Plates are shaken at room temperature for 20 minutes and standard luciferase assay reagent (Promega) is added to each well by injection and the plate is read on an Lmax luminometer (Molecular Devices).
A supernatant collected from PBMC cells non-exposed to the compound and diluted as specified in the first column was used as a control (“Blank supernatant”). The PBMC cells were isolated from a single blood donor as specified.

[2] = Homo sapiens, PBMC, Table 10, 100 μM, 24 hours exposure, read-out: Amount of INFa relative to that induced by isatoribine at 100 μM
[3] = Homo sapiens, PBMC, Table 11, 100 μM, 24 hours exposure, read-out: Amount of INFa relative to that induced by isatoribine at 100 μM
[4] = Homo sapiens, PBMC, Table 13, 100 μM, 24 hours exposure, read-out: Amount of INFa relative to that induced by isatoribine at 100 μM
[5] = Homo sapiens, PBMC, Table 14, 24 hours exposure, read-out: Amount of INFa relative to that induced by isatoribine at 100 μM
[6] = Homo sapiens, PBMC, Table 9, 100 μM, 24 hours exposure, same blood donor, read-out: Amount of INFa relative to that induced by isatoribine at 100 μM

C=CCn1c(=O)n([C@@H]2O[C@H](CO)[C@@H](O)[C@H]2O)c2nc(N)[nH]c(=O)c21 [Compound 17, 7-allyl-2-amino-9-β-D-ribofuranosyl-7,9-dihydro-1H-purine-6,8-dione]
Emax at 100 µM [1, 2]: 50%
HCV replicon inhibition (HCV replicon; Table 4 No. 1, PBMC exposed 24 hours to 100 μM, donor FL75864, supernatant dilution 1:10): 100%
HCV replicon inhibition (HCV replicon; Table 4 No. 1, PBMC exposed 24 hours to 100 μM, donor FL75864, supernatant dilution 1:100): 74%
HCV replicon inhibition (HCV replicon; Table 4 No. 1, PBMC exposed 24 hours to 100 μM, donor FL75864, supernatant dilution 1:1000): 17%

CC(C)Cn1cnc2c(N)nc3ccccc3c21 [Compound 31, 1-Isobutyl-1H-imidazo[4,5-c]quinolin-4-ylamine]
Emax at 100 µM ([1]; Homo sapiens, PBMC, 24 h, read-out: Amount of INFa relative to that induced by isatoribine at 100 μM): 60 to 76%
HCV replicon inhibition (HCV replicon; Table 5 No. 1, PBMC exposed 8 hours to 3.2 μM, donor FL75287, supernatant dilution 1:10): 100%
HCV replicon inhibition (HCV replicon; Table 5 No. 1, PBMC exposed 8 hours to 3.2 μM, donor FL75287, supernatant dilution 1:100): 100%
HCV replicon inhibition (HCV replicon; Table 5 No. 1, PBMC exposed 8 hours to 3.2 μM, donor FL75287, supernatant dilution 1:1000): 89%
HCV replicon inhibition (HCV replicon; Table 5 No. 2, PBMC exposed 8 hours to 3.2 μM, donor FL75287, supernatant dilution 1:10): 100%
HCV replicon inhibition (HCV replicon; Table 5 No. 2, PBMC exposed 8 hours to 3.2 μM, donor FL75287, supernatant dilution 1:100): 75%
HCV replicon inhibition (HCV replicon; Table 5 No. 2, PBMC exposed 8 hours to 3.2 μM, donor FL75287, supernatant dilution 1:1000): 1%

CCCCCOC(=O)Nc1nc2ccccc2c2c1ncn2CC(C)C [Compound 34, (1-Isobutyl-1H-imidazo[4,5-c]quinolin-4-yl)-carbamic acid pentyl ester]
Emax at 100 µM [1, 3]: 0%

CCOC(=O)Nc1nc(-c2ccccc2)c(Br)c(=O)[nH]1 [Compound 36, (5-Bromo-6-oxo-4-phenyl-1,6-dihydro-pyrimidin-2-yl)-carbamic acid ethyl ester]
Emax at 100 µM [1, 4]: 0%

CCOc1nc(N)nc(-c2ccccc2)c1Br [Compound 37, 5-Bromo-4-ethoxy-6-phenyl-pyrimidin-2-ylamine]
Emax at 100 µM [1, 4]: 0%

C=CCn1c(=O)n([C@@H]2O[C@H](CO)[C@@H](O)[C@H]2O)c2nc(N)ncc21 [Compound 43, 7-Allyl-2-amino-9-β-D-ribofuranosyl-7,9-dihydro-purin-8-one]
Emax at 100 µM [1, 2]: 0%

C=CCn1c(=O)n([C@@H]2O[C@H](CO)[C@@H](O)[C@H]2O)c2nc(N)nc(OCC)c21 [Compound 45, 7-Allyl-2-amino-6-ethoxy-9-β-D-ribofuranosyl-7,9-dihydro-purin-8-one]
Emax at 100 µM [1, 2]: 0%

Nc1ncc(Br)c(-c2ccccc2)n1 [Compound 48, 5-Bromo-4-phenyl-pyrimidin-2-ylamine]
Emax at 100 µM [1, 4]: 0%

CCCCCOC(=O)Nc1nc(-c2ccccc2)c(Br)c(=O)[nH]1 [Compound 49, (5-Bromo-6-oxo-4-phenyl-1,6-dihydro-pyrimidin-2-yl)-carbamic acid pentyl ester]
Emax at 100 µM [1, 4]: 0%

CCOC(=O)Nc1nc2ccccc2c2c1ncn2CC(C)C [Compound 50, (1-Isobutyl-1H-imidazo[4,5-c]quinolin-4-yl)-carbamic acid ethyl ester]
Emax at 100 µM [1, 3]: 0%

CCOC(=O)Oc1nc2c(N)nc(OCCOC)nc2n1Cc1ccccc1 [Compound 51, Carbonic acid 6-amino-9-benzyl-2-(2-methoxy-ethoxy)-9H-purin-8-yl ester ethyl ester]
Emax at 32 µM ([1]; Homo sapiens, PBMC, Table 14, 32 μM, 24 hours exposure, read-out: Amount of INFa relative to that induced by isatoribine at 100 μM): 18%

CCCCCOC(=O)Oc1nc2c(N)nc(OCCOC)nc2n1Cc1ccccc1 [Compound 54, Carbonic acid 6-amino-9-benzyl-2-(2-methoxy-ethoxy)-9H-purin-8-yl ester pentyl ester]
Emax at 10 µM [1, 5]: 15%

COCCOc1nc(N)c2ncn(Cc3ccccc3)c2n1 [Compound 62, 9-Benzyl-2-(2-methoxy-ethoxy)-9H-purin-6-ylamine]
Emax at 0.1 µM ([1]; Homo sapiens, PBMC, Table 14, 0.1 μM, 24 hours exposure, read-out: Amount of INFa relative to that induced by isatoribine at 100 μM): 0%

CCOc1nc2c(N)nc(OCCOC)nc2n1Cc1ccccc1 [Compound 64, 9-Benzyl-8-ethoxy-2-(2-methoxy-ethoxy)-9H-purin-6-ylamine]
Emax at 10 µM [1, 5]: 0%

COCCOc1nc(N)c2nc(OC)n(Cc3ccccc3)c2n1 [Compound 65, 9-Benzyl-8-methoxy-2-(2-methoxy-ethoxy)-9H-purin-6-ylamine]
Emax at 100 µM ([1]; Homo sapiens, PBMC, Table 14, 100 μM, 24 hours exposure, read-out: Amount of INFa relative to that induced by isatoribine at 100 μM): 0%

C=CCn1c(=O)n([C@@H]2O[C@H](COC(=O)[C@@H](N)C(C)C)[C@@H](O)[C@H]2O)c2nc(N)[nH]c(=O)c21 [Compound 68, 7-Allyl-2-Amino-9-(5′-O-L-valinyl-β-D-ribofuranosyl)-7,9-dihydro-1H-purine-6,8-dione]
Emax at 100 µM [1, 2]: 0%

CCOc1nc(N)nc2c1sc(=O)n2[C@@H]1O[C@H](CO)[C@@H](O)[C@H]1O [Compound 77, 5-Amino-7-ethoxy-3-β-D-ribofuranosyl-thiazolo[4,5-d]pyrimidin-2-one]
Emax at 100 µM [1, 6]: 0%

COc1nc(N)nc2c1sc(=O)n2[C@@H]1O[C@H](CO)[C@@H](O)[C@H]1O [Compound 79, 5-Amino-7-methoxy-3-β-D-ribofuranosyl-thiazolo[4,5-d]pyrimidin-2-one]
Emax at 100 µM [1, 6]: 0%

CCOC(=O)NCOc1nc(N)nc2c1sc(=O)n2[C@@H]1O[C@H](CO)[C@@H](O)[C@H]1O [Compound 82, (5-Amino-2-oxo-3-β-D-ribofuranosyl-2,3-dihydro-thiazolo[4,5-d]pyrimidin-7-yloxymethyl)-carbamic acid ethyl ester]
Emax at 100 µM [1, 6]: 0%

CCOC(=O)N(C)COc1nc(N)nc2c1sc(=O)n2[C@@H]1O[C@H](CO)[C@@H](O)[C@H]1O [Compound 84, (5-Amino-2-oxo-3-β-D-ribofuranosyl-2,3-dihydro-thiazolo[4,5-d]pyrimidin-7-yloxymethyl)-methyl-carbamic acid ethyl ester]
Emax at 100 µM [1, 6]: 0%

CC(=O)OC[C@H]1O[C@@H](n2c(=O)sc3c(OCc4oc(=O)oc4C)nc(N)nc32)[C@H](OC(C)=O)[C@@H]1OC(C)=O [Compound 85, 5-Amino-7-(5-methyl-2-oxo-[1,3]dioxol-4-ylmethoxy)-3-(2′,3′,5′-tri-O-acetyl-β-D-ribofuranosyl)-thiazolo[4,5-d]pyrimidin-2-one]
Emax at 100 µM [1, 6]: 0%

[2-Ethoxymethyl-1-(2-hydroxy-2-methyl-propyl)-1H-imidazo[4,5-c]quinolin-4-yl]-carbamic acid ethyl ester [Compound 39]
Amount of INFa relative to that induced by isatoribine at 100 μM ([1]; Table 12, 1 μM, 24 hours exposure): 95 @ 1 μM %
